# Patent US9249180B2, “C-3 alkyl and alkenyl modified betulinic acid derivatives” (priority 2013, dated 2016)
# Tested on: recombinant NL4-3 virus (Renilla luciferase in nef, Gag P373S; NLRluc) in MT-2 cells
# Experiment: HIV Cell Culture Assay (luciferase reporter, antiviral activity)
# Format: cell-based
# Conditions: MT-2 cells infected for 4-5 days with NLRluc recombinants, serial dilutions of the inhibitor
# Procedure: HIV Cell Culture Assay—MT-2 cells and 293T cells were obtained from the NIH AIDS Research and Reference Reagent Program. MT-2 cells were propagated in RPMI 1640 media supplemented with 10% heat inactivated fetal bovine serum, […]. The 293T cells were propagated in DMEM media supplemented with 10% heat inactivated fetal bovine serum (FBS), 100 units/ml penicillin G and 100 μg/ml streptomycin. The proviral DNA clone of NL4-3 was obtained from the NIH AIDS Research and Reference Reagent Program. A recombinant NL4-3 virus, in which a section of the nef gene from NL4-3 was replaced with the Renilla luciferase gene, was used as a reference virus. In addition, residue Gag P373 was converted to P373S. Briefly, the recombinant virus was prepared by transfection of the altered proviral clone of NL4-3. Transfections were performed in 293T cells using LipofectAMINE PLUS from Invitrogen (Carlsbad, Calif.), according to manufacturer's instruction. The virus was titered in MT-2 cells using luciferase enzyme activity as a marker. Luciferase was quantitated using the Dual Luciferase kit from Promega (Madison, Wis.), with modifications to the manufacturer's protocol. The diluted Passive Lysis solution was pre-mixed with the re-suspended Luciferase Assay Reagent and the re-suspended Stop & Glo Substrate (2:1:1 ratio). Fifty (50) μL of the mixture was added to each aspirated well on assay plates and luciferase activity was measured immediately on a Wallac TriLux (Perkin-Elmer). Antiviral activities of inhibitors toward the recombinant virus were quantified by measuring luciferase activity in cells infected for 4-5 days with NLRluc recombinants in the presence serial dilutions of the inhibitor.
row,Structure (SMILES),EC50
1,"C=C(C)[C@@H]1CC[C@]2(NCCN3CCS(=O)(=O)CC3)CC[C@]3(C)[C@H](CC[C@@H]4[C@@]5(C)CC=C(CC6CCCC(C(=O)O)C6)C(C)(C)[C@@H]5CC[C@]43C)[C@@H]12 (single isomer, unassigned) [Example 3]",1.72 nM

# Same assay, conditions: Renilla, NL43, MT-2 cells infected for 4-5 days with NLRluc recombinants, serial dilutions of the inhibitor
row,Structure (SMILES),EC50
1,"C=C(C)[C@@H]1CC[C@]2(NCCN3CCS(=O)(=O)CC3)CC[C@]3(C)[C@H](CC[C@@H]4[C@@]5(C)CC=C(CC6CCCC(C(=O)O)C6)C(C)(C)[C@@H]5CC[C@]43C)[C@@H]12 (single isomer, unassigned) [Example 2]",2 nM
2,"CC(C)[C@@H]1CC[C@]2(NCCN3CCS(=O)(=O)CC3)CC[C@]3(C)[C@H](CC[C@@H]4[C@@]5(C)CCC(CCCCC(=O)O)C(C)(C)[C@@H]5CC[C@]43C)[C@@H]12 (stereo partly drawn) [Example 16, 5-((1S,3aS,5aR,5bR,7aS,11aS,11bR,13aR,13bR)-3a-((2-(1,1-dioxidothiomorpholino)ethyl)amino)-1-isopropyl-5a,5b,8,8,11a-pentamethylicosahydro-1H-cyclopenta[a]chrysen-9-yl)pentanoic acid]",1 nM
3,"C=C(C)[C@@H]1CC[C@]2(NCCN3CCS(=O)(=O)CC3)CC[C@]3(C)[C@H](CC[C@@H]4[C@@]5(C)CC=C(CC6CCC(C(=O)O)CC6)C(C)(C)[C@@H]5CC[C@]43C)[C@@H]12 (stereo partly drawn) [Example 1, 4-(((1R,3aS,5aR,5bR,7aR,11aS,11bR,13aR,13bR)-3a-((2-(1,1-dioxidothiomorpholino)ethyl)amino)-5a,5b,8,8,11a-pentamethyl-1-(prop-1-en-2-yl)-2,3,3a,4,5,5a,5b,6,7,7a,8,11,11a,11b,12,13,13a,13b-octadecahydro-1H-cyclopenta[a]chrysen-9-yl)methyl)cyclohexanecarboxylic acid]",2.96 nM
4,"C=C(C)[C@@H]1CC[C@]2(NCCN3CCS(=O)(=O)CC3)CC[C@]3(C)[C@H](CC[C@@H]4[C@@]5(C)CC=C(C=C6CCC(C(=O)O)CC6)C(C)(C)[C@@H]5CC[C@]43C)[C@@H]12 (stereo partly drawn) [Example A1, 4-(((1R,3aS,5aR,5bR,7aR,11aS,11bR,13aR,13bR)-3a-((2-(1,1-dioxidothiomorpholino)ethyl)amino)-5a,5b,8,8,11a-pentamethyl-1-(prop-1-en-2-yl)-2,3,3a,4,5,5a,5b,6,7,7a,8,11,11a,11b,12,13,13a,13b-octadecahydro-1H-cyclopenta[a]chrysen-9-yl)methylene)cyclohexanecarboxylic acid]",3.55 nM
5,"C=C(C)[C@@H]1CC[C@]2(NCCN3CCS(=O)(=O)CC3)CC[C@]3(C)[C@H](CC[C@@H]4[C@@]5(C)CC=C(CCCC(C(=O)O)C(=O)O)C(C)(C)[C@@H]5CC[C@]43C)[C@@H]12 [Example 5, 2-(3-((1R,3aS,5aR,5bR,7aR,11aS,11bR,13aR,13bR)-3a-((2-(1,1-dioxidothiomorpholino)ethyl)amino)-5a,5b,8,8,11a-pentamethyl-1-(prop-1-en-2-yl)-2,3,3a,4,5,5a,5b,6,7,7a,8,11,11a,11b,12,13,13a,13b-octadecahydro-1H-cyclopenta[a]chrysen-9-yl)propyl)malonic acid]",310 nM
6,"C=C(C)[C@@H]1CC[C@]2(NCCN3CCS(=O)(=O)CC3)CC[C@]3(C)[C@H](CC[C@@H]4[C@@]5(C)CC=C(CCCCC(=O)O)C(C)(C)[C@@H]5CC[C@]43C)[C@@H]12 [Example 4, 5-((1R,3aS,5aR,5bR,7aR,11aS,11bR,13aR,13bR)-3a-((2-(1,1-dioxidothiomorpholino)ethyl)amino)-5a,5b,8,8,11a-pentamethyl-1-(prop-1-en-2-yl)-2,3,3a,4,5,5a,5b,6,7,7a,8,11,11a,11b,12,13,13a,13b-octadecahydro-1H-cyclopenta[a]chrysen-9-yl)pentanoic acid]",2.27 nM
7,"C=C(C)[C@@H]1CC[C@]2(NCCN3CCS(=O)(=O)CC3)CC[C@]3(C)[C@H](CC[C@@H]4[C@@]5(C)CC=C(/C=C/c6ccc(C(=O)O)cc6)C(C)(C)[C@@H]5CC[C@]43C)[C@@H]12 [Example B1, 4-((E)-2-((1R,3aS,5aR,5bR,7aR,11aS,11bR,13aR,13bR)-3a-((2-(1,1-dioxidothiomorpholino)ethyl)amino)-5a,5b,8,8,11a-pentamethyl-1-(prop-1-en-2-yl)-2,3,3a,4,5,5a,5b,6,7,7a,8,11,11a,11b,12,13,13a,13b-octadecahydro-1H-cyclopenta[a]chrysen-9-yl)vinyl)benzoic acid]",10 nM
8,"C=C(C)[C@@H]1CC[C@]2(NCCN3CCS(=O)(=O)CC3)CC[C@]3(C)[C@H](CC[C@@H]4[C@@]5(C)CC=C(CCCCCC(=O)O)C(C)(C)[C@@H]5CC[C@]43C)[C@@H]12 [Example 10, 6-((1R,3aS,5aR,5bR,7aR,11aS,11bR,13aR,13bR)-3a-((2-(1,1-dioxidothiomorpholino)ethyl)amino)-5a,5b,8,8,11a-pentamethyl-1-(prop-1-en-2-yl)-2,3,3a,4,5,5a,5b,6,7,7a,8,11,11a,11b,12,13,13a,13b-octadecahydro-1H-cyclopenta[a]chrysen-9-yl)hexanoic acid]",3.1 nM
9,"C=C(C)[C@@H]1CC[C@]2(NCCN3CCS(=O)(=O)CC3)CC[C@]3(C)[C@H](CC[C@@H]4[C@@]5(C)CC=C(CCC(C)(C)CC(=O)NOC)C(C)(C)[C@@H]5CC[C@]43C)[C@@H]12 [Example 13, 5-((1R,3aS,5aR,5bR,7aR,11aS,11bR,13aR,13bR)-3a-((2-(1,1-dioxidothiomorpholino)ethyl)amino)-5a,5b,8,8,11a-pentamethyl-1-(prop-1-en-2-yl)-2,3,3a,4,5,5a,5b,6,7,7a,8,11,11a,11b,12,13,13a,13b-octadecahydro-1H-cyclopenta[a]chrysen-9-yl)-N-methoxy-3,3-dimethylpentanamide]",30 nM
10,"C=C(C)[C@@H]1CC[C@]2(NCCN3CCS(=O)(=O)CC3)CC[C@]3(C)[C@H](CC[C@@H]4[C@@]5(C)CC=C(CCCC(C)(C)C(=O)O)C(C)(C)[C@@H]5CC[C@]43C)[C@@H]12 [Example 7, 5-((1R,3aS,5aR,5bR,7aR,11aS,11bR,13aR,13bR)-3a-((2-(1,1-dioxidothiomorpholino)ethyl)amino)-5a,5b,8,8,11a-pentamethyl-1-(prop-1-en-2-yl)-2,3,3a,4,5,5a,5b,6,7,7a,8,11,11a,11b,12,13,13a,13b-octadecahydro-1H-cyclopenta[a]chrysen-9-yl)-2,2-dimethylpentanoic acid]",5.3 nM
11,"C=C(C)[C@@H]1CC[C@]2(NCCN3CCS(=O)(=O)CC3)CC[C@]3(C)[C@H](CC[C@@H]4[C@@]5(C)CC=C(CCC(C)(C)CC(=O)NO)C(C)(C)[C@@H]5CC[C@]43C)[C@@H]12 [Example 12, 5-((1R,3aS,5aR,5bR,7aR,11aS,11bR,13aR,13bR)-3a-((2-(1,1-dioxidothiomorpholino)ethyl)amino)-5a,5b,8,8,11a-pentamethyl-1-(prop-1-en-2-yl)-2,3,3a,4,5,5a,5b,6,7,7a,8,11,11a,11b,12,13,13a,13b-octadecahydro-1H-cyclopenta[a]chrysen-9-yl)-N-hydroxy-3,3-dimethylpentanamide]",2 nM
